Source: publication PMC8709206, “Study on Purification and Characterization of Polyphenol Oxidase from Acetes chinensis” (Molecules, 2021)

System: T1, Acetes chinensis PPO (polyphenol oxidase)
T1 construct: native enzyme purified from fresh shrimp (ammonium sulphate, DEAE, Phenyl-Sepharose HP); single SDS-PAGE band about 75 kDa
Experiment: absorbance at […] nm, Lineweaver-Burk
Format: biochemical
Details: 0.05 mol/L phosphate buffer pH 7.2, 40 °C, 40 min; Figure 2 caption names pyrocatechol, text names L-Dopa

Question: For N[C@@H](Cc1ccc(O)c(O)c1)C(=O)O [L-dopa], which Km is on record?
Answer: 846 µM
